Patent US20060264460A1 (Wyeth, priority 2005, published 2006)

molecular target: T1, human Cot/Tpl2 kinase (Homo sapiens, UniProt P41279); test: Tpl2/Cot kinase assay: GST-MEK1 phosphorylation detected by ELISA (DELFIA Eu); format: biochemical; conditions: Table 2; Tpl2/Cot kinase, GST-MEK1 substrate, 50 uM ATP
T1 construct: human Cot/Tpl2 kinase construct encoding residues 30-398; 6His (N); made in house; host or cells: Sf9 insect cells, baculovirus system (BD Biosciences)
Summary of the method: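 Substrate phosphorylation (GST-MEK1 Ser217/221) quantified by DELFIA europium ELISA, yielding IC50 values. Reaction: 1 h at 30° C, pH 7.2 MOPS buffer, 50 uM ATP, 35 nM GST-MEK1, 0.4 nM monomeric His-Tpl2 purified from Sf9 cells, compounds at 1% final DMSO; stopped with EDTA.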

T1 sequence (P41279 30-398): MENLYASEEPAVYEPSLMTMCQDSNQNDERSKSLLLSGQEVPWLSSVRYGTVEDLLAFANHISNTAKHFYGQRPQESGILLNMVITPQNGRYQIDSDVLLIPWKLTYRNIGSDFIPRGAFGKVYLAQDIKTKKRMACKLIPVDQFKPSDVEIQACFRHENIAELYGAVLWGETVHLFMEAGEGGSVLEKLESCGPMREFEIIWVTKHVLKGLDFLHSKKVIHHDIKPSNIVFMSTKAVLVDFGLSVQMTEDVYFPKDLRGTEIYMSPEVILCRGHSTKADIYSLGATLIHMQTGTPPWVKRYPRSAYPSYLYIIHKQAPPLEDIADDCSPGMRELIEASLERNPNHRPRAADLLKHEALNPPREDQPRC

| IC50 [nM] | Structure (SMILES) |
| --- | --- |
| 100 | Cc1cc(CNc2cc(Cl)c3ncc(C#N)c(Nc4ccc(F)c(Cl)c4)c3c2)n[nH]1 [Example 429] |
| 120 | Cc1cc(CNc2cc(Cl)c3ncc(C#N)c(Nc4ccc(F)c(Cl)c4)c3c2)n(C)n1 [Example 430] |
| 220 | Cc1nc(CNc2cc(Cl)c3ncc(C#N)c(Nc4ccc(F)c(Cl)c4)c3c2)c(C)[nH]1 [Example 431] |
| 260 | COCc1nc(CNc2cc(Cl)c3ncc(C#N)c(Nc4ccc(F)c(Cl)c4)c3c2)c[nH]1 [Example 432] |
| 250 | N#Cc1cnc2c(Br)cc(NCc3ccnn3-c3ccccc3)cc2c1Nc1ccc(F)c(Cl)c1 [Example 433] |
| > 40000 | N#Cc1cnc2c(Br)cc(NCc3cnn(-c4ccccc4)n3)cc2c1Nc1ccc(F)c(Cl)c1 [Example 434] |
| 21 | C[Si](C)(C)c1n[nH]nc1CNc1cc(Br)c2ncc(C#N)c(Nc3ccc(F)c(Cl)c3)c2c1 [Example 435] |
| 150 | N#Cc1cnc2c(Br)cc(NCc3cncn3O)cc2c1Nc1ccc(F)c(Cl)c1 [Example 436] |
| 200 | N#Cc1cnc2c(F)cc(NCc3cncn3O)cc2c1Nc1ccc(F)c(Cl)c1 [Example 437] |
| 110 | N#Cc1cnc2c(Cl)cc(NCc3cncn3O)cc2c1Nc1ccc(F)c(Cl)c1 [Example 438] |
| 220 | Cn1cncc1CNc1cc(Cl)c2ncc(C#N)c(Nc3ccc(F)c(Cl)c3)c2c1 [Example 439] |
| 49 | N#Cc1cnc2c(Cl)cc(NCc3csnn3)cc2c1Nc1ccc(F)c(Cl)c1 [Example 440] |
| 1900 | Cc1[nH]c(C2CCCC2)nc1CNc1cc(Cl)c2ncc(C#N)c(Nc3ccc(F)c(Cl)c3)c2c1 [Example 441] |
| 3400 | COC(=O)c1cnc(CNc2cc(Cl)c3ncc(C#N)c(Nc4ccc(F)c(Cl)c4)c3c2)n1C [Example 442] |
| 25 | CCCc1[nH]cnc1CNc1cc(Cl)c2ncc(C#N)c(Nc3ccc(F)c(Cl)c3)c2c1 [Example 443] |
| 20600 | Cc1[nH]c(-c2cccnc2)nc1CNc1cc(Cl)c2ncc(C#N)c(Nc3ccc(F)c(Cl)c3)c2c1 [Example 444] |
| 1100 | COc1ccsc1CNc1cc(Cl)c2ncc(C#N)c(Nc3ccc(F)c(Cl)c3)c2c1 [Example 445] |
| 98 | Cn1nccc1CNc1cc(Br)c2ncc(C#N)c(Nc3ccc(F)c(Cl)c3)c2c1 [Example 446] |
| 870 | N#Cc1cnc2c(Cl)cc(NCC(=O)c3ccccc3)cc2c1Nc1ccc(F)c(Cl)c1 [Example 447] |
| 370 | N#Cc1cnc2c(Br)cc(NCc3n[nH]c4c3CCCC4)cc2c1Nc1ccc(F)c(Cl)c1 [Example 448] |
| 5500 | Cc1cc(CNc2cc(Br)c3ncc(C#N)c(Nc4ccc(F)c(Cl)c4)c3c2)nn1C [Example 449] |
| 2400 | CC(C)(CNc1cc(Cl)c2ncc(C#N)c(Nc3ccc(F)c(Cl)c3)c2c1)N1CCOCC1 [Example 450] |
| 51 | N#Cc1cnc2c(I)cc(NCc3cnc[nH]3)cc2c1Nc1ccc(F)c(Cl)c1 [Example 452] |
| > 40000 | Cn1nc(CNc2cc(Br)c3ncc(C#N)c(Nc4ccc(F)c(Cl)c4)c3c2)cc1-c1ccccc1 [Example 453] |
| 330 | N#Cc1cnc2c(Br)cc(NCc3cc(-c4ccccc4)[nH]n3)cc2c1Nc1ccc(F)c(Cl)c1 [Example 454] |

| IC50 [nM] | Structure (SMILES) |
| --- | --- |
| 13500 | N#Cc1cnc2c(Br)cc(NCc3cc(-c4ccncc4)[nH]n3)cc2c1Nc1ccc(F)c(Cl)c1 [Example 455] |
| 1000 | Cn1ncc(Br)c1CNc1cc(Br)c2ncc(C#N)c(Nc3ccc(F)c(Cl)c3)c2c1 [Example 456] |
| 170 | C=Cc1cc(NCc2cnc[nH]2)cc2c(Nc3ccc(F)c(Cl)c3)c(C#N)cnc12 [Example 457] |
| 1300 | N#Cc1cnc2c(Cl)cc(NCc3cccc(O)c3O)cc2c1Nc1ccc(F)c(Cl)c1 [Example 458] |
| 23 | CC(=O)c1cc(NCc2cnc[nH]2)cc2c(Nc3ccc(F)c(Cl)c3)c(C#N)cnc12 [Example 459] |
| 2000 | CN(C)CC#Cc1ncn(COCc2ccccc2)c1CNc1cc(Cl)c2ncc(C#N)c(Nc3ccc(F)c(Cl)c3)c2c1 [Example 460] |
| 130 | CN(C)CCCc1nc[nH]c1CNc1cc(Cl)c2ncc(C#N)c(Nc3ccc(F)c(Cl)c3)c2c1 [Example 461] |
| 1200 | N#Cc1cnc2c(CCO)cc(NCc3cnc[nH]3)cc2c1Nc1ccc(F)c(Cl)c1 [Example 462] |
| 260 | CC(O)c1cc(NCc2cnc[nH]2)cc2c(Nc3ccc(F)c(Cl)c3)c(C#N)cnc12 (stereo not shown) [Example 463] |
| 570 | N#Cc1cnc2c(CO)cc(NCc3cnc[nH]3)cc2c1Nc1ccc(F)c(Cl)c1 [Example 464] |
| 51 | N#Cc1cnc2c(Cl)cc(NCC(=O)O)cc2c1Nc1ccc(F)c(Cl)c1 [Example 465] |
| 230 | Cn1nnc(CNc2cc(Cl)c3ncc(C#N)c(Nc4ccc(F)c(Cl)c4)c3c2)n1 [Example 466] |
| 1200 | Cn1nnc(CCNc2cc(Cl)c3ncc(C#N)c(Nc4ccc(F)c(Cl)c4)c3c2)n1 [Example 467] |
| 360 | CN1CCN(C(=O)CNc2cc(Cl)c3ncc(C#N)c(Nc4ccc(F)c(Cl)c4)c3c2)CC1 [Example 468] |
| 170 | Cn1nnnc1CCNc1cc(Cl)c2ncc(C#N)c(Nc3ccc(F)c(Cl)c3)c2c1 [Example 469] |
| 420 | N#Cc1cnc2c(Cl)cc(NCC(=O)N3CCNCC3)cc2c1Nc1ccc(F)c(Cl)c1 [Example 470] |
| > 40000 | CON(C)C(=O)CNc1cc(Cl)c2ncc(C#N)c(Nc3ccc(F)c(Cl)c3)c2c1 [Example 471] |
| 160 | CONC(=O)CNc1cc(Cl)c2ncc(C#N)c(Nc3ccc(F)c(Cl)c3)c2c1 [Example 472] |
| 470 | CNC(=O)CNc1cc(Cl)c2ncc(C#N)c(Nc3ccc(F)c(Cl)c3)c2c1 [Example 473] |
| 1700 | CN(C)C(=O)CNc1cc(Cl)c2ncc(C#N)c(Nc3ccc(F)c(Cl)c3)c2c1 [Example 474] |
| 1400 | CCOC(=O)CNc1cc(Cl)c2ncc(C#N)c(Nc3ccc(F)c(Cl)c3)c2c1 [Example 475] |
| 16 | CCc1[nH]cnc1CNc1cc(Cl)c2ncc(C#N)c(Nc3ccc(F)c(Cl)c3)c2c1 [Example 476] |
| > 40000 | N#Cc1cnc2c(Br)cc(N(Cc3cn(CCN4CCOCC4)nn3)Cc3cn(CCN4CCOCC4)nn3)cc2c1Nc1ccc(F)c(Cl)c1 [Example 477] |
| 530 | Cn1cnc(CNc2cc(Cl)c3ncc(C#N)c(Nc4ccc(F)c(Cl)c4)c3c2)n1 [Example 478] |
| 1700 | N#Cc1cnc2c(Br)cc(NCc3cn(C45CC6CC(CC(C6)C4)C5)nn3)cc2c1Nc1ccc(F)c(Cl)c1 [Example 479] |

| IC50 [nM] | Structure (SMILES) |
| --- | --- |
| 20 | CN(C)CCCn1cc(CNc2cc(Br)c3ncc(C#N)c(Nc4ccc(F)c(Cl)c4)c3c2)nn1 [Example 480] |
| 24 | CN(C)CCn1cc(CNc2cc(Br)c3ncc(C#N)c(Nc4ccc(F)c(Cl)c4)c3c2)nn1 [Example 481] |
| 160 | N#Cc1cnc2c(Br)cc(NCc3cncn3CCN3CCOCC3)cc2c1Nc1ccc(F)c(Cl)c1 [Example 482] |
| 100 | N#Cc1cnc2c(Cl)cc(NCc3nc[nH]n3)cc2c1Nc1ccc(F)c(Cl)c1 [Example 483] |
| 110 | N#Cc1cnc2c(Br)cc(NCc3nc[nH]n3)cc2c1Nc1ccc(F)c(Cl)c1 [Example 484] |
| 200 | Cn1cnc(CNc2cc(Br)c3ncc(C#N)c(Nc4ccc(F)c(Cl)c4)c3c2)n1 [Example 486] |
| 11 | CC(O)Cn1cc(CNc2cc(Br)c3ncc(C#N)c(Nc4ccc(F)c(Cl)c4)c3c2)nn1 (stereo not shown) [Example 487] |
| 41 | N#Cc1cnc2c(Br)cc(NCc3cn(CCN4CCOCC4)cn3)cc2c1Nc1ccc(F)c(Cl)c1 [Example 488] |
| 62 | N#Cc1cnc2c(Cl)cc(NCc3cncn3CCN3CCOCC3)cc2c1Nc1ccc(F)c(Cl)c1 [Example 489] |
| 33 | N#Cc1cnc2c(Cl)cc(NCc3cn(CCN4CCOCC4)cn3)cc2c1Nc1ccc(F)c(Cl)c1 [Example 490] |
| 23 | N#Cc1cnc2c(Cl)cc(NCc3cn(CC(F)(F)F)nn3)cc2c1Nc1ccc(F)c(Cl)c1 [Example 491] |
| 250 | CC(C)(C)OC(=O)N1CCC(n2cc(CNc3cc(Br)c4ncc(C#N)c(Nc5ccc(F)c(Cl)c5)c4c3)nn2)CC1 [Example 493] |
| 170 | CC(C)(C)OC(=O)N1CCC(Cn2cc(CNc3cc(Br)c4ncc(C#N)c(Nc5ccc(F)c(Cl)c5)c4c3)nn2)CC1 [Example 494] |
| 4.8 | N#Cc1cnc2c(Br)cc(NCc3cn(Cc4ccncc4)nn3)cc2c1Nc1ccc(F)c(Cl)c1 [Example 495] |
| 47 | N#Cc1cnc2c(Br)cc(NCc3cn(CC4CCNCC4)nn3)cc2c1Nc1ccc(F)c(Cl)c1 [Example 496] |
| 100 | N#Cc1cnc2c(Br)cc(NCc3cn(CC(F)(F)F)nn3)cc2c1Nc1ccc(F)c(Cl)c1 [Example 498] |
| 12 | CN1CCC(Cn2cc(CNc3cc(Br)c4ncc(C#N)c(Nc5ccc(F)c(Cl)c5)c4c3)nn2)CC1 [Example 499] |
| 67 | CN(CCn1cc(CNc2cc(Br)c3ncc(C#N)c(Nc4ccc(F)c(Cl)c4)c3c2)nn1)C(=O)OC(C)(C)C [Example 500] |
| 4700 | CN(CCn1cc(CN(Cc2cn(CCN(C)C(=O)OC(C)(C)C)nn2)c2cc(Br)c3ncc(C#N)c(Nc4ccc(F)c(Cl)c4)c3c2)nn1)C(=O)OC(C)(C)C [Example 501] |
| 48 | CN(CCn1cc(CNc2cc(Cl)c3ncc(C#N)c(Nc4ccc(F)c(Cl)c4)c3c2)nn1)C(=O)OC(C)(C)C [Example 502] |
| 130 | CC(C)(C)OC(=O)N1CCC(CCn2cc(CNc3cc(Br)c4ncc(C#N)c(Nc5ccc(F)c(Cl)c5)c4c3)nn2)CC1 [Example 503] |
| 75 | CC(C)(C)OC(=O)N1CCC(CCn2cc(CNc3cc(Cl)c4ncc(C#N)c(Nc5ccc(F)c(Cl)c5)c4c3)nn2)CC1 [Example 504] |
| 290 | CN1CCC(Cn2cc(CN(C)c3cc(Br)c4ncc(C#N)c(Nc5ccc(F)c(Cl)c5)c4c3)nn2)CC1 [Example 505] |
